{"source": "ChEMBL document CHEMBL3886921", "about": "“Substituted pyrazoles as N-type calcium channel blockers” (2016)", "biological_target": "Voltage-gated calcium channel", "test": "Functional Drug Screening System (FDSS): Calcium mobilization responses to KCl depolarization were evaluated by measuring the intensity of calcium-mediated fluorescent signal in the presence of BD Calcium Assay Dye (BD Biosciences, Franklin Lakes, N.J., U.S.A.), utilizing a Functional Drug Screening System (FDSS) by Hamamatsu Corporation (Bridgewater, N.J. U.S.A.).Twenty-four hr prior to assay, cells were seeded in clear-base poly-D-lysine-coated 384-well plates (BD Biosciences) at a density of 5,000 cells per well in culture medium and grown overnight in 5% CO2 at 37° C. On the day of assay, growth media were removed, and cells were loaded with BD calcium assay dye (BD Biosciences) for 35 min at 37° C. under 5% CO2 and then for 25 min at room temp. Utilizing the FDSS, cells were exposed to representative compounds of Formula (I) at varying concentrations, and intracellular calcium was measured for 5 min prior to the addition of 50 mM KCl for an additional 3 min of measurement.", "type": "cell-based"}
{"smiles": "COc1ccccc1-n1nc(OC2CC(C)(C)C(=O)C(C)(C)C2)cc1-c1ccc(Cl)cc1", "values": [{"measurement": "IC50", "value": 9.7, "unit": "nM"}]}
